Values of other authors, collected in patent US20070031339A1, “Contrast agents” (priority 2003, published 2007).

Details: aqueous solution at 350 mg iodine/ml, 37° C.

- Viscosity: 7.6 mPas
SMILES: C[C@H](O)C(=O)Nc1c(I)c(C(=O)NC(CO)CO)c(I)c(C(=O)NC(CO)CO)c1I [lopamidol]
